Key:
SARS-CoV-2 3CL^pro [1] = molecular target: T1, SARS-CoV-2 3CL^pro (Severe acute respiratory syndrome coronavirus 2, UniProt P0DTD1); assay: Microscale thermophoresis; format: binding
SARS-CoV-2 3CL^pro [2] = molecular target: T1, SARS-CoV-2 3CL^pro; assay: cell-based; conditions: EC50 against SARS-CoV-2 3CLpro (BRET ratio)
HCoV-OC43 = assay: Anti-coronavirus activity assay; format: cell-based; conditions: HCT-8 cells, MOI 0.1, serial dilutions up to 50 μM

Which Kd (SARS-CoV-2 3CL^pro [1]; Kd) does the source give for `Cc1c(O)cccc1C(=O)N[C@@H](CSc1ccccc1)[C@H](O)CN1C[C@H]2CCCC[C@H]2C[C@H]1C(=O)NC(C)(C)C` [nelfinavir, Nelfinavir] here?
Its Kd is 9.16e-05 M.

What about the Kd (SARS-CoV-2 3CL^pro [1]; Kd(M)) of the same compound?
The Kd was 9.16e-05 M.

With `CC(C)(C)NC(=O)[C@@H]1C[C@@H]2CCCC[C@@H]2CN1C[C@@H](O)[C@H](Cc1ccccc1)NC(=O)[C@H](CC(N)=O)NC(=O)c1ccc2ccccc2n1` [saquinavir] as the compound, how does the EC50 (SARS-CoV-2 3CL^pro [2]) read?
The EC50 was 40 µM.

For `C=C[C@@H]1C[C@]1(NC(=O)[C@@H]1C[C@@H]2CN1C(=O)[C@H](C(C)(C)C)NC(=O)O[C@@H]1C[C@H]1CCCCCc1nc3ccc(OC)cc3nc1O2)C(=O)NS(=O)(=O)C1CC1.O` [grazoprevir, Grazoprevir], which “inhibitory effect on the replication of HCoV-OC43” value (HCoV-OC43) is on record?
Its value is “did not significantly inhibit”.

With `C=C(C)[C@@H]1CC[C@]2(C(=O)O)CC[C@]3(C)[C@H](CC[C@@H]4[C@@]5(C)CC[C@H](OC(=O)CC(C)(C)C(=O)O)C(C)(C)[C@@H]5CC[C@]43C)[C@@H]12` [bevirimat, Bevirimat] as the compound, how does the “inhibitory effect on the replication of HCoV-OC43” value (HCoV-OC43) read?
The value was “did not significantly inhibit”.

What about the Kd (SARS-CoV-2 3CL^pro [1]; Kd(M), MST, target 100 nM, ligand 0.0153 μM–500 μM, MST power 40%) of the same compound?
Its Kd is 1.05e-05 M.

What about the Kd (SARS-CoV-2 3CL^pro [1]; Kd, MST, labeled 3CLpro 100 nM, 40% MST power) of the same compound?
Its Kd is 1.05e-05 M.

Source: article PMC9499987 (Antiviral Research, 2022)
